According to patent US20060069132A1, “Azolecarboxamide herbicides” (priority 2004, published 2006):

How the values were obtained:
barnyardgrass = experiment: Test A pre-/postemergence herbicide test; format: in vivo, Echinochloa crus-galli
In short: (§1)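 Plants are held in greenhouse about ten days after treatment, then compared with untreated controls and scored 0 (no effect) to 100 (complete control). Preemergence dosing is a directed soil spray on sown sandy loam; postemergence dosing is spray to runoff at 2–10 cm height.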

large crabgrass = experiment: Test A pre-/postemergence herbicide test; format: in vivo, Digitaria sanguinalis
In short: as §1

redroot pigweed = experiment: Test A pre-/postemergence herbicide test; format: in vivo, Amaranthus retroflexus
In short: as §1

corn = experiment: Test C pre-/postemergence herbicide test; format: in vivo, Zea mays
In short: (§2)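 Greenhouse-grown plants were evaluated visually 12 to 14 days after treatment, with 100 meaning complete control and 0 no effect. Application was preemergence, or postemergence at 2 to 18 cm.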

giant foxtail = experiment: Test C pre-/postemergence herbicide test; format: in vivo, Setaria faberi
In short: as §2

kochia = experiment: Test C pre-/postemergence herbicide test; format: in vivo, Kochia scoparia
In short: as §2

lambsquarters = experiment: Test C pre-/postemergence herbicide test; format: in vivo, Chenopodium album
In short: as §2

common ragweed = experiment: Test C pre-/postemergence herbicide test; format: in vivo, Ambrosia elatior; parameters: key to Plant response rating, Ragweed: 0 = no effect, 100 = complete control
In short: as §2

[1] = test system: common (oilseed) sunflower; experiment: Test C pre-/postemergence herbicide test; format: in vivo, Helianthus annuus; conditions: preemergence
In short: as §2

velvetleaf = experiment: Test C pre-/postemergence herbicide test; format: in vivo, Abutilon theophrasti
In short: as §2

[2] = Postemergence, 500 g ai/ha, 0 to 100 scale, 0 no effect, 100 complete control
[3] = Postemergence, 2000 g ai/ha, 0 to 100 scale, 0 no effect, 100 complete control
[4] = Preemergence, 2000 g ai/ha, visual rating, 0 to 100 scale (0 no effect, 100 complete control)
[5] = preemergence, 500 g ai/ha, visual injury, 0 to 100 scale (0 no effect, 100 complete control)
[6] = 62 g ai/ha, preemergence, scale 0 to 100
[7] = 125 g ai/ha, scale 0 (no effect) to 100 (complete control), visual, 12 to 14 days, preemergence
[8] = 250 g ai/ha, scale 0-100, preemergence
[9] = 500 g ai/ha, scale 0 to 100 (0 no effect, 100 complete control), visual, 12 to 14 days, preemergence
[10] = 500 g ai/ha, scale 0 to 100 (0 no effect, 100 complete control), visual, 12 to 14 days
[11] = Postemergence, 500 g ai/ha, scale 0 to 100
[12] = Postemergence, 250 g ai/ha, scale 0 to 100, 0 no effect, 100 complete control
[13] = postemergence, 125 g ai/ha, scale 0 to 100
[14] = postemergence, 62 g ai/ha, scale 0 to 100

In the case of `CCN(CC)C(=O)c1cccc(NC(=O)c2cc(C(C)(C)C)nn2C)n1` [Compound 314], the “Barnyardgrass plant response rating” value (barnyardgrass; [2]) is reported as 35, the “Plant response rating, Barnyardgrass” value (barnyardgrass; [3]) is reported as 75 and the “Barnyardgrass plant response rating” value (barnyardgrass; [4]) is reported as 90. The “Barnyardgrass plant response rating” value (barnyardgrass; [5]) was 50, the “Crabgrass, Large plant response rating” value (large crabgrass; [2]) was 20 and the “Plant response rating, Crabgrass, Large” value (large crabgrass; [3]) was 60. The “Crabgrass, Large plant response rating” value (large crabgrass; [4]) was 90, the “Crabgrass, Large plant response rating” value (large crabgrass; [5]) was 55 and the “Pigweed plant response rating” value (redroot pigweed; [2]) was 80. The “Plant response rating, Pigweed” value (redroot pigweed; [3]) was 100, the “Pigweed plant response rating” value (redroot pigweed; [4]) was 90 and the “Pigweed plant response rating” value (redroot pigweed; [5]) was 80. The “Plant response rating, Corn” value (corn; [6]) was 0, the “Plant response rating, Corn” value (corn; [7]) was 0 and the “Plant response rating, Corn” value (corn; [8]) was 0. The “Plant response rating, Corn” value (corn; [9]) was 0, the “Plant response rating, Foxtail, Giant” value (giant foxtail; [6]) was 0 and the “Plant response rating, Foxtail, Giant” value (giant foxtail; [7]) was 0. The “Plant response rating, Foxtail, Giant” value (giant foxtail; [8]) was 20, the “Plant response rating, Foxtail, Giant” value (giant foxtail; [9]) was 70 and the “Plant response rating, Kochia” value (kochia; [6]) was 0. For the same molecule, the “Plant response rating, Kochia” value (kochia; [7]) was 0, the “Plant response rating, Kochia” value (kochia; [8]) was 30 and the “Plant response rating, Kochia” value (kochia; [9]) was 70. The “Plant response rating, Lambsquarters” value (lambsquarters; [6]) was 0, the “Plant response rating, Lambsquarters” value (lambsquarters; [7]) was 10 and the “Plant response rating, Lambsquarters” value (lambsquarters; [8]) was 30. For the same molecule, the “Plant response rating, Lambsquarters” value (lambsquarters; [9]) was 85, the “Plant response rating, Ragweed” value (common ragweed; [6]) was 0 and the “Plant response rating, Ragweed” value (common ragweed; [8]) was 40. The “Plant response rating, Ragweed” value (common ragweed; [9]) was 60, the “Plant response rating, Sunflower” value ([1]; 62 g ai/ha, scale 0 to 100) was 0 and the “Plant response rating, Sunflower” value ([1]; 250 g ai/ha, scale 0-100) was 20. The “Plant response rating, Sunflower” value [1, 10] was 45, the “Plant response rating, Velvetleaf” value (velvetleaf; [6]) was 0 and the “Plant response rating, Velvetleaf” value (velvetleaf; [8]) was 80. The “Plant response rating, Velvetleaf” value (velvetleaf; [9]) was 85.
`C=CCNC(=O)c1cccc(NC(=O)c2cc(C(C)(C)C)nn2C)n1` [Compound 318] was tested, and the “Barnyardgrass plant response rating” value (barnyardgrass; [2]) was 65, the “Plant response rating, Barnyardgrass” value (barnyardgrass; [3]) was 90 and the “Barnyardgrass plant response rating” value (barnyardgrass; [4]) was 95. The “Barnyardgrass plant response rating” value (barnyardgrass; [5]) was 65, the “Crabgrass, Large plant response rating” value (large crabgrass; [2]) was 30 and the “Plant response rating, Crabgrass, Large” value (large crabgrass; [3]) was 70. The “Crabgrass, Large plant response rating” value (large crabgrass; [4]) was 70, the “Crabgrass, Large plant response rating” value (large crabgrass; [5]) was 55 and the “Pigweed plant response rating” value (redroot pigweed; [2]) was 95. For the same molecule, the “Plant response rating, Pigweed” value (redroot pigweed; [3]) was 100, the “Pigweed plant response rating” value (redroot pigweed; [4]) was 100 and the “Pigweed plant response rating” value (redroot pigweed; [5]) was 75. The “Plant response rating, Corn” value (corn; [6]) was 0, the “Plant response rating, Corn” value (corn; [7]) was 0 and the “Plant response rating, Corn” value (corn; [8]) was 10. The “Plant response rating, Corn” value (corn; [9]) was 40, the “Corn plant response rating” value (corn; [11]) was 25 and the “Plant response rating, Corn” value (corn; [12]) was 10. For the same molecule, the “Plant response rating, Corn” value (corn; [13]) was 10, the “Plant response rating, Corn” value (corn; [14]) was 0 and the “Plant response rating, Foxtail, Giant” value (giant foxtail; [6]) was 0. The “Plant response rating, Foxtail, Giant” value (giant foxtail; [7]) was 10, the “Plant response rating, Foxtail, Giant” value (giant foxtail; [8]) was 50 and the “Plant response rating, Foxtail, Giant” value (giant foxtail; [9]) was 80. For the same molecule, the “Foxtail, Giant plant response rating” value (giant foxtail; [11]) was 10, the “Plant response rating, Foxtail, Giant” value (giant foxtail; [12]) was 5 and the “Plant response rating, Foxtail, Giant” value (giant foxtail; [13]) was 0. The “Plant response rating, Foxtail, Giant” value (giant foxtail; [14]) was 0, the “Plant response rating, Kochia” value (kochia; [6]) was 10 and the “Plant response rating, Kochia” value (kochia; [7]) was 60. The “Plant response rating, Kochia” value (kochia; [8]) was 85, the “Plant response rating, Kochia” value (kochia; [9]) was 100 and the “Kochia plant response rating” value (kochia; [11]) was 60. For the same molecule, the “Plant response rating, Kochia” value (kochia; [12]) was 60, the “Plant response rating, Kochia” value (kochia; [13]) was 10 and the “Plant response rating, Kochia” value (kochia; [14]) was 0. The “Plant response rating, Lambsquarters” value (lambsquarters; [6]) was 80, the “Plant response rating, Lambsquarters” value (lambsquarters; [7]) was 95 and the “Plant response rating, Lambsquarters” value (lambsquarters; [8]) was 100. For the same molecule, the “Plant response rating, Lambsquarters” value (lambsquarters; [9]) was 100, the “Lambsquarters plant response rating” value (lambsquarters; [11]) was 100 and the “Plant response rating, Lambsquarters” value (lambsquarters; [12]) was 100. The “Plant response rating, Lambsquarters” value (lambsquarters; [13]) was 70, the “Plant response rating, Lambsquarters” value (lambsquarters; [14]) was 60 and the “Plant response rating, Ragweed” value (common ragweed; [6]) was 0. The “Plant response rating, Ragweed” value (common ragweed; [8]) was 70, the “Plant response rating, Ragweed” value (common ragweed; [9]) was 70 and the “Ragweed plant response rating” value (common ragweed; [11]) was 0. The “Plant response rating, Ragweed” value (common ragweed; [12]) was 0, the “Plant response rating, Ragweed” value (common ragweed; [13]) was 0 and the “Plant response rating, Ragweed” value (common ragweed; [14]) was 0. The “Plant response rating, Sunflower” value ([1]; 62 g ai/ha, scale 0 to 100) was 0, the “Plant response rating, Sunflower” value ([1]; 250 g ai/ha, scale 0-100) was 0 and the “Plant response rating, Sunflower” value [1, 10] was 0. The “Plant response rating, Velvetleaf” value (velvetleaf; [6]) was 60, the “Plant response rating, Velvetleaf” value (velvetleaf; [8]) was 100 and the “Plant response rating, Velvetleaf” value (velvetleaf; [9]) was 100. The “Velvetleaf plant response rating” value (velvetleaf; [11]) was 60, the “Plant response rating, Velvetleaf” value (velvetleaf; [12]) was 40 and the “Plant response rating, Velvetleaf” value (velvetleaf; [13]) was 35. The “Plant response rating, Velvetleaf” value (velvetleaf; [14]) was 0.
